Read-outs that look alike come from different tables or passages of the source.
How the values were obtained:
[1] = tested on: osteoclast differentiation; experiment: Inhibitory effects on osteoclast differentiation (bone marrow cell/osteoblast co-culture, TRAP staining); type: cell-based, mice; conditions: for inhibition at 1 µM: Mus musculus, Osteoclast, 168 h, read-out: Inhibition of osteoclast differentiation (%)
Protocol: The effect of the benzamidine derivative of the present invention on osteoclast formation and differentiation process was evaluated via co-culture with an osteoblast.
Tibia was aseptically ectomized from 6 to 8-week-old male ddY mice to harvest bone marrow cells by using a syringe (21G, Korea Green Cross). The bone marrow cells were suspended in 5 mL of an α-MEM medium (Gibco BRL Co., supplemented with sodium bicarbonate (2.0 g/L), streptomycin (100 mg/L) and penicillin ([…]), filtered and then sterilized). The harvested cells were centrifuged at 600×g for 5 minutes to collect the whole quantity. To remove the red blood cells in the bone marrow cells, 3 mL of Tris HCl (0.83% NH4Cl, pH 7.5) was added and well mixed. After centrifugation, the numbers of the eukaryotic cells in the harvested bone marrow cells were counted, and then immediately used for a co-culture system.
The progenitor bone and the parietal bone were aseptically ectomized from 1 to 2-day-old neonatal ICR mice, washed with a phosphate butter solution (PBS), and treated with a mixed enzyme solution (0.2% collagenase and 0.1% dispase) six to seven times (10, 10, 10, 20, 20 and 20 min), and then 3 to 6 groups of the cells, in which a large volume of cells having osteoblastic characteristics were contained, were intensively collected, and washed with medium (serum-free α-MEM). The washed cells were cultured in the α-MEM medium containing 10% FBS for 2 to 3 days. After sub-culturing, the collected cells were used for this experiment, and diluted to a concentration of 1×10^6 cells/mL for storage at −70° C.
The benzamidine derivative of the present invention was dissolved in a sterile distilled water or ethanol to be diluted to a desired concentration. The final volume of the sample added to the cell culture medium was set at a ratio of 1:1000.
The bone marrow cells prepared in the above 1-1 and the osteoblast were co-cultured. Both the bone marrow cells (25,000 cells/cm^2) and the osteoblast (10,000 cells/cm^2) were plated in a 96-well plate using α-MEM medium containing FBS, and then cultured with the samples to be tested for 7 days. Differentiation factors, such as dexamethasone (10^−7 M) and vitamin D (10^−8 M), were also co-added to the medium from the first day of cultivation. The medium was changed with a fresh media containing a mixture of the samples and the differentiation factors every 2 to 3 days.
TRAP was used as a marker to measure the matured osteoclast in consideration of its characteristics showing a positive reaction to a TRAP staining solution.
The TRAP staining solution was prepared in such the manner that 5 mg of naphthol AS-MS phosphate (sigma N-4875) as a substrate and 25 mg of a coloring agent (Fast Red Violet LB salt) were dissolved in N,N-dimethylformamide (about 0.5 mL). 50 ml of a 0.1 N […] buffer solution containing 50 mM tartaric acid (pH 5.0) was added thereto, and the mixture was stored in a refrigerator prior to use as a staining solution.
After culturing the cells for 7 days, the medium was removed from the wells, the cells were once washed with PBS, and then fixed with PBS containing 10% formalin for 2 to 5 min. The cells were fixed again in a mixed solution of ethanol and acetone (1/1) for about 1 min, and dried off. The cells were further treated by the TRAP staining solution for 15 minutes, and washed with water and dried off. The osteoclasts with 3 or more nuclei showing a TRAP-positive reaction were counted under a microscopic examination. Each of tests was confirmed at least three times. The inhibitory effect on osteoclast differentiation of each experimental group, relative to negative controls, was expressed as a percentage (%).

[2] = tested on: HOS; experiment: Cytotoxicity test (MTT), HOS; type: cell-based; conditions: 10^−6 M, cultured for 72 hrs, in comparison with the control group
Protocol: (§1) The cytotoxic effect of the benzamidine derivative of the present invention was evaluated by carrying out the experiment described below.
(§2) The test substance was diluted in an appropriate solvent at a concentration of 10^−2 M. This substance was diluted in an appropriate culture medium for the cells used in the cytotoxicity test to a concentration of 10^−6M, and loaded into a 96-well plate in 100 μl per well. The cell lines to be used in the cytotoxicity test were plated on a 96-well plate in a dose of 1.0×10^4 cell/100 μl per well, and cultured for 72 hrs. 25 μl of MTT[3-(4,5-dimethyl-2-thiazolyl)-2,5-diphenyl-2H-tetrazolium bromide] dissolved in PBS (2 mg/mL) were added before 4 hrs of the end of culture. After completion of the reaction, the plates were centrifuged, the medium was discarded and 100 μl of DMSO was added to dissolve formazan. Finally, the absorbance of the developed plates was measured at 540 nm. The survival rates of the cells were expressed as % concentration values in comparison with the control group.

[3] = tested on: calvaria; experiment: Cytotoxicity test (MTT), calvaria; type: cell-based; conditions: 10^−6 M, cultured for 72 hrs, in comparison with the control group
Protocol: as §1, §2

[4] = tested on: MC3T3-E1; experiment: Cytotoxicity test (MTT), MC3T3-E1; type: cell-based; conditions: 10^−6 M, cultured for 72 hrs, in comparison with the control group
Protocol: as §1, §2

[5] = 1 μm, 7 days co-culture, TRAP-positive osteoclasts with 3 or more nuclei, relative to negative controls

Row | Compound | inhibition at 1 µM [1, 5] [%] | Cell survival rate [2] [%] | Cell survival rate [3] [%] | Cell survival rate [4] [%] | inhibition at 1 µM [1] [%] | Inhibition of osteoclast differentiation (%) [1, 5] [%]
1 | CC(C)NCc1sc(N(C)CCN2CCOCC2)nc1-c1ccc(OCCCCCOc2ccc(C(=N)NO)cc2)cc1 [Example 32, N-hydroxy-4-[5-(4-{5-(isopropylamino-methyl)-2-[methyl-(2-morpholin-4-yl-ethyl)-amino]-thiazol-4-yl}-phenoxy)-pentyloxy]-benzamidine] | 100 | 106 | 98 | 104 |  | 
2 | Cc1nc(-c2ccc(OCCCCCOc3ccc(C(=N)NO)cc3)cc2)c(CN2CCOCC2)s1 [Example 8, N-hydroxy-4-{5-[4-(2-methyl-5-morpholin-4-ylmethyl-thiazol-4-yl)-phenoxy]-pentyloxy}-benzamidine] | 96.4 | 102.3 | 90.7 | 94.7 |  | 
3 | N=C(NO)c1ccc(OCCCCCOc2ccc(-c3nc(N4CCOCC4)sc3N3CCOCC3)cc2)cc1 [Example 5, N-hydroxy-4-{5-[4-(2,5-di-morpholin-4-yl-thiazol-4-yl)-phenoxy]-pentyloxy}-benzamidine] | 98 | 100 | 98 | 93 |  | 
4 | Cc1nc(-c2ccc(OCCCCCOc3ccc(C(=N)NO)cc3)cc2)c(CN2CCN(C)CC2)s1 [Example 9, N-hydroxy-4-(5-{4-[2-methyl-5-(4-methyl-piperazin-1-ylmethyl)-thiazol-4-yl]-phenoxy}-pentyloxy)-benzamidine] |  | 95 | 92.3 | 98.8 | 96.4 | 
5 | CCN(C)c1nc(-c2ccc(OCCCCCOc3ccc(C(=N)NO)cc3)cc2)c(CN2CCOCC2)s1 [Example 26, N-hydroxy-4-(5-{4-[2-(ethyl-methyl-amino)-5-morpholin-4-ylmethyl-thiazol-4-yl]-phenoxy}-pentyloxy)-benzamidine] | 98 | 102 | 107 | 98 |  | 
6 | Cc1nc(-c2ccc(OCCCCCOc3ccc(C(=N)NO)cc3)cc2)c(CNCCN2CCOCC2)s1 [Example 17, N-hydroxy-4-[5-(4-{2-methyl-5-[(2-morpholin-4-yl-ethylamino)-methyl]-thiazol-4-yl}-phenoxy)-pentyloxy]-benzamidine] |  | 99 | 93 | 103 | 100 | 
7 | CN(C)c1sc(-c2ccccc2)nc1-c1ccc(OCCCCCOc2ccc(C(=N)NO)cc2)cc1 [Example 42, N-hydroxy-4-{5-[4-(5-dimethylamino-2-phenyl-thiazol-4-yl)-phenoxy]-pentyloxy}-benzamidine] | 49 | 100 | 98 | 91 |  | 
8 | CCCCNCc1sc(C)nc1-c1ccc(OCCCCCOc2ccc(C(=N)NO)cc2)cc1 [Example 13, N-hydroxy-4-{5-[4-(5-butylaminomethyl-2-methyl-thiazol-4-yl)-phenoxy]-pentyloxy}-benzamidine] | 100 | 106 | 96 | 93 |  | 
9 | Cc1nc(-c2ccc(OCCCCCOc3ccc(C(=N)NO)cc3)cc2)c(CNCCCn2ccnc2)s1 [Example 18] |  | 106 | 94 | 99 |  | 100
10 | CN(CCN1CCOCC1)c1nc(-c2ccc(OCCCCCOc3ccc(C(=N)NO)cc3)cc2)c(CN2CCOCC2)s1 [Example 28, N-hydroxy-4-[5-(4-{2-[methyl-(2-morpholin-4-yl-ethyl)-amino]-5-morpholin-4-ylmethyl-thiazol-4-yl}-phenoxy)-pentyloxy]-benzamidine] | 100 | 114 | 104 | 11 |  | 
11 | Cc1nc(-c2ccc(OCCCCCOc3ccc(C(=N)NO)cc3)cc2)c(N2CCOCC2)s1 [Example 1, N-hydroxy-4-{5-[4-(2-methyl-5-morpholin-4-yl-thiazol-4-yl)-phenoxy]-pentyloxy}-benzamidine] | 94 | 105.6 | 91.5 | 85.9 |  | 
12 | CN1CCN(Cc2sc(N(C)CCN3CCOCC3)nc2-c2ccc(OCCCCCOc3ccc(C(=N)NO)cc3)cc2)CC1 [Example 31, N-hydroxy-4-(5-{4-[2-[methyl-(2-morpholin-4-yl-ethyl)-amino]-5-(4-methyl-piperazin-1-ylmethyl)-thiazol-4-yl]-phenoxy}-pentyloxy)-benzamidine] | 88 | 101 | 102 | 110 |  | 
13 | CNc1nc(-c2ccc(OCCCCCOc3ccc(C(=N)NO)cc3)cc2)c(CN2CCOCC2)s1 [Example 50, N-hydroxy-4-{5-[4-(2-methylamino-5-morpholin-4-ylmethyl-thiazol-4-yl)-phenoxy]-pentyloxy}-benzamidine] | 100 | 102 | 90 | 91 |  | 
14 | CN(Cc1ccccc1)c1nc(-c2ccc(OCCCCCOc3ccc(C(=N)NO)cc3)cc2)c(CN2CCOCC2)s1 [Example 27, N-hydroxy-4-(5-{4-[2-(benzyl-methyl-amino)-5-morpholin-4-ylmethyl-thiazol-4-yl]-phenoxy}-pentyloxy)-benzamidine] | 77 | 104 | 106 | 102 |  | 
15 | Cc1nc(-c2ccc(OCCCCCOc3ccc(C(=N)NO)cc3)cc2)c(N)s1 [Example 46, N-hydroxy-4-{5-[4-(5-amino-2-methyl-thiazol-4-yl)-phenoxy]-pentyloxy}-benzamidine] | 88 | 106 | 95 | 90 |  | 
16 | Cc1nc(-c2ccc(OCCCCCOc3ccc(C(=N)NO)cc3)cc2)c(CN2CCSCC2)s1 [Example 10, N-hydroxy-4-{5-[4-(2-methyl-5-thiomorpholin-4-ylmethyl-thiazol-4-yl)-phenoxy]-pentyloxy}-benzamidine] |  | 101 | 94.5 | 93.4 | 92.9 | 
17 | Cc1nc(-c2ccc(OCCCCCOc3ccc(C(=N)NO)cc3)cc2)c(CN2CCCC2)s1 [Example 19, N-hydroxy-4-{5-[4-(2-methyl-5-pyrrolidin-1-ylmethyl-thiazol-4-yl)-phenoxy]-pentyloxy}-benzamidine] | 100 | 90 | 97 | 103 |  | 

From US20100249402A1, “NOVEL BENZAMIDINE DERIVATIVES, PROCESS FOR THE PREPARATION THEREOF AND PHARMACEUTICAL COMPOSITION FOR PREVENTING OR TREATING OSTEPOROSIS COMPRISING THE SAME” (DONG WHA PHARMACEUTICAL CO. LTD., priority 2007, published 2010)
